Test results taken from ChEMBL document CHEMBL1152549, “Synthesis and molecular modeling of some novel hexahydroindazole derivatives as potent monoamine oxidase inhibitors” (Bioorg Med Chem, 2009).

Assays:
[1] = biological target: T1, Amine oxidase [flavin-containing] B (Rattus norvegicus, UniProt P19643); assay: Competitive inhibition of MAOB in rat liver homogenate by spectrophotometrically; type: tissue-based
T1 sequence (P19643 whole entry): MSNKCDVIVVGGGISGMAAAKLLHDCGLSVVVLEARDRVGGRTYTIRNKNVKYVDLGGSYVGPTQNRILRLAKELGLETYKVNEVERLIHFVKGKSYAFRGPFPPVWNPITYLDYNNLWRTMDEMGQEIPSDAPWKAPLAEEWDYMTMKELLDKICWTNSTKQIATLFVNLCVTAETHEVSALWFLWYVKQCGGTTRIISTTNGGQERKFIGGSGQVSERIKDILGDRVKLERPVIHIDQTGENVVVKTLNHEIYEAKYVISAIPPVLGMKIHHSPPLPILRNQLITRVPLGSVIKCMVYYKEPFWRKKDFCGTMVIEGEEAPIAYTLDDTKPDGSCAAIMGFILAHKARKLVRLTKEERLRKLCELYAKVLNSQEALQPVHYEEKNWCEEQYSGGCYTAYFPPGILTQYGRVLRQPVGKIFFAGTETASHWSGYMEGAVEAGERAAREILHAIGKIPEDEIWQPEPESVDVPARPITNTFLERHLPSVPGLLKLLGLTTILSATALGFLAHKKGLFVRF

[2] = biological target: T2, Amine oxidase [flavin-containing] A (Rattus norvegicus, UniProt P21396); assay: Competitive inhibition of MAOA in rat liver homogenate by spectrophotometrically; type: tissue-based
T2 sequence (P21396 whole entry): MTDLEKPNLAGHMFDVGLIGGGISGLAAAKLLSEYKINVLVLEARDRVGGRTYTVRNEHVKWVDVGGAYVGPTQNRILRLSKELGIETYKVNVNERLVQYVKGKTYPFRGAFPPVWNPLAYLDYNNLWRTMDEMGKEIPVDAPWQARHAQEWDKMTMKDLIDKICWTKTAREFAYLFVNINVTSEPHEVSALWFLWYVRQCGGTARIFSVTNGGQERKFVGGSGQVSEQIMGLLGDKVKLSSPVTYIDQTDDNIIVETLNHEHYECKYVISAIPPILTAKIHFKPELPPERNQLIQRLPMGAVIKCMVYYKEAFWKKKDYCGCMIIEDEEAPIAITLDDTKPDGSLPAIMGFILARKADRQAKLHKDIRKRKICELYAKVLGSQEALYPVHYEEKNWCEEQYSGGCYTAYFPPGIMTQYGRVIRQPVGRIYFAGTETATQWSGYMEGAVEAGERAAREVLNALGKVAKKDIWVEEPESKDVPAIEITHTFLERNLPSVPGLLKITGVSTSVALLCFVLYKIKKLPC

Rattus norvegicus = organism: Rattus norvegicus; assay: Selectivity index, ratio of Ki for rat MAOA to Ki for rat MAOB

NC(=S)N1NC2=C(CCCC2)C1c1cccs1 (configuration not stated)
IC50 [1]: 1.26 µM
Ki [1]: 0.0009 µM
IC50 [2]: 95.2 µM
Ki [2]: 2.99 µM
Ratio Ki (Rattus norvegicus): 3320

S=C(Nc1ccccc1)N1NC2=C(CCCC2)C1c1ccco1 (configuration not stated)
IC50 [1]: 80.4 µM
Ki [1]: 1.23 µM
IC50 [2]: 0.78 µM
Ki [2]: 0.00422 µM
Ratio Ki (Rattus norvegicus): 0.0034

O=C(NCCN1CCOCC1)c1ccc(Cl)cc1 [MOCLOBEMIDE]
IC50 [1]: 89.5 µM
Ki [1]: 1.08 µM

NC(=S)N1NC2=C(CCCC2)C1c1ccco1 (configuration not stated)
IC50 [1]: 1.37 µM
Ki [1]: 0.00096 µM
IC50 [2]: 80.2 µM
Ki [2]: 3.9 µM
Ratio Ki (Rattus norvegicus): 4060

CCNC(=S)N1NC2=C(CCCC2)C1c1ccco1 (configuration not stated)
IC50 [1]: 2.77 µM
Ki [1]: 1.95 µM
IC50 [2]: 110 µM
Ki [2]: 4.26 µM
Ratio Ki (Rattus norvegicus): 2.19

CCNC(=S)N1NC2=C(CCCC2)C1c1cccs1 (configuration not stated)
IC50 [1]: 90.1 µM
Ki [1]: 3.01 µM
IC50 [2]: 3.01 µM
Ki [2]: 1.72 µM
Ratio Ki (Rattus norvegicus): 0.57

CNC(=S)N1NC2=C(CCCC2)C1c1cccs1 (configuration not stated)
IC50 [1]: 2.61 µM
Ki [1]: 1.69 µM
IC50 [2]: 62.3 µM
Ki [2]: 5.01 µM
Ratio Ki (Rattus norvegicus): 2.96

S=C(Nc1ccccc1)N1NC2=C(CCCC2)C1c1cccs1 (configuration not stated)
IC50 [1]: 75.1 µM
Ki [1]: 92.3 µM
IC50 [2]: 0.7 µM
Ki [2]: 0.0391 µM
Ratio Ki (Rattus norvegicus): 0.004

CNC(=S)N1NC2=C(CCCC2)C1c1ccco1 (configuration not stated)
IC50 [1]: 2.99 µM
Ki [1]: 2.1 µM
IC50 [2]: 108 µM
Ki [2]: 8.82 µM
Ratio Ki (Rattus norvegicus): 4.2
